Results taken from patent US20150182550A1, “INHIBITORS OF THE INTERACTION OF THE SIGMA-1 RECEPTOR WITH hERG FOR USE IN THE TREATMENT OF CANCER” (CENTRE NATIONAL DE LA RECHERCHE SCIENTIFIQUE - CNRS, priority 2011, published 2015).

Tests used:
hERG channels = experiment: Whole-cell patch-clamp of hERG tail currents in K562 cells; details: 10 μM
Procedure: “Patch-clamp” electrophysiology experiments were carried out in the whole cell configuration. […] This protocol makes it possible to record transient inward currents, the amplitude of which correlates with the depolarization involved during the prepulses. […] (FIGS. 1A,B).
In order to verify a potential interaction between Sig1R and hERG, the effects of selective Sig1R ligands, i.e. igmesine and (+)pentazocine were analyzed with respect to the current. […] The effects of igmesine (10 μM) were then studied on I/V curves recorded at from −70 to 40 mV.
Patch-clamp experiments were then carried out in the K562 shRD and shSig1R cell lines in order to analyze the possible consequences of Sig1R silencing on the properties of hERG.

K562 cells = experiment: Adhesion of K562 cells to fibronectin (FN); assay type: cell-based, human; details: for FN-dependent specific cell adhesion: wild-type K562 cells, 10 μM
From the text: FIGS. 8A-8B represents the inhibition of the adhesion of K562 cells to FN by igmesine, E-4031 and Sig1R silencing. […] The values represent the mean±standard error of 6 to 9 independent experiments. NS: not significant (Student's t test). […] The values represent the mean±standard error of 12 independent experiments. ***p<0.001 (Student's t test). In one experiment, each value is the mean of three distinct wells.
The role of the Sig1R/hERG interaction on integrin-dependent cell adhesion to the extracellular matrix (ECM) has been tested in vitro. The expression of a single integrin subtype, i.e. integrin α5β1, has been reported in K562 cells. This integrin has a high affinity for fibronectin (FN), a component of the extracellular matrix (ECM). […] In the wild-type cells, the hERG channel blocker (E-4031) and igmesine inhibited FN-dependent specific cell adhesion. […] Likewise, the Sigma ligands no longer have any effect on the adhesion of the shSig1R cells (not represented).

Row | SMILES | effect of extracellular application on hERG currents (hERG channels; K562 cells) | hERG current reduced by (hERG channels; extracellular application, tail current at −120 mV, K562 cells) [%] | FN-dependent specific cell adhesion (K562 cells) | hERG current reduced by (hERG channels; human) [%] | shift towards the left of the half-activation voltage value (hERG channels; human) [mV] | additive effect on adhesion to FN compared with E-4031 alone (K562 cells; E4031+igmesine 10 μM each, K562 cells)
1 | CC(C)=CCN1CCC2(C)c3cc(O)ccc3CC1C2C (single isomer, unassigned; (+)) [(+)pentazocine] | reversibly inhibited | 21.19±1.77 | – | – | – | –
2 | Cc1cccc(CCN2CCC(C(=O)c3ccc(NS(C)(=O)=O)cc3)CC2)n1 [E-4031] | – | – | inhibited | – | – | –
3 | CCC(C/C=C/c1ccccc1)(c1ccccc1)N(C)CC1CC1 (stereo not shown) [igmesine] | – | – | inhibited | 40.85±2.83 | ~10 | did not produce an additive effect
